According to patent publication US20030148963A1 (priority 2000, published 2003):
“And” between values parts separate entries of the source, which are not always exact repeats. Identical values can stand only once. Like-named read-outs stand apart in the source and are kept apart here. Marks after values point to notes of the source that are not given here.

What was measured:
[1] = tested on: S. aureus-induced arthritis; experiment: Histopathological and immunohistochemical examination of joints, S. aureus arthritis; assay type: in vivo, NMRI mice
Procedure: The mice were sacrificed 6 days after bacterial inoculation One front and one hind paw from each animal in both groups (etoposide-treated and controls) were removed. Histopathological examination was performed after routine fixation, decalcification, paraffin embedding, and staining with hematoxylin and eosin. All the slides were coded and the joints were studied with regard to synovial hypertrophy (defined as a synovial membrane thickness of more than two cell layers), pannus formation (synovial tissue overlaying the joint cartilage), and cartilage and bone destruction.
In another experiment, mice were killed by cervical dislocation 6 days after bacterial inoculation, all four limbs were removed and demineralized by a procedure detailed in an earlier report. The demineralized specimens were mounted on cryostat chucks, frozen in isopentane prechilled by liquid nitrogen, and kept at −70° C. until cryosectioned. Six μm-thick sections were cut frontally to permit simultaneous inspection of most joints within the paw. All sections were fixed in cold acetone for 5 min, washed in PBS, and depleted of endogenous peroxidase by treatment with 0.3% H2O2 for 5 min. The sections were incubated overnight in a humid atmosphere at +4° C. with 50 μl portions of unlabelled rat monoclonal antibody specific for macrophages (Mac-3, clone M3/84 from PharMingen), diluted in PBS containing 1% BSA. Biotin-labelled rabbit antl-rat Ig diluted in PBS-BSA was used as secondary antibody. Binding of secondary antibodies was detected by stepwise incubation with avidin-biotin-peroxidase complexes (ABC) and a buffert containing 3-amino-9-ethyl-carbazole and H2O2. All sections were counterstained with Mayer's hematoxylin.

IL-6 [2] = assay type: cell-based, NMRI mice; settings: 24 h supernatant
TNF = assay type: cell-based, NMRI mice; settings: spleen cells from non-infected in vivo etoposide-treated mice; mean ± SEM, four mice
[3] = tested on: peripheral blood leukocytes; experiment: Hematological analyses during S. aureus infection; assay type: in vivo, NMRI mice
Procedure: Hematological Analyses Mice were bled from the tail into heparinized tubes on days −3, −1, 3, and 6-7 after bacterial inoculation. The leukocytes were counted in a hemacytometer (Toa Medical Electronics, Kobe, Japan). Fifty microliters of the heparinized blood was analysed in a FACScan cytometer (Becton Dickinson, San Jose, Calif.) to determine the percentages of lymphocytes, granulocytes, and monocytes, respectively. The absolute numbers of different leukocyte subsets were then calculated from the total leukocyte counts.

[4] = tested on: collagen induced arthritis (CIA); experiment: Collagen induced arthritis, histopathological examination of joints; assay type: in vivo, B10.QxDBA/1 female mice
Procedure: Histopathological examination was performed after routine fixation, decalcification, paraffin embedding, and staining with hematoxylin and eosin. All the slides were coded and the joints were studied with regard to synovial hypertrophy (defined as a synovial membrane thickness of more than two cell layers), pannus formation (synovial tissue overlaying the joint cartilage), and cartilage and bone destruction (loss of tissue integrity with resulting ingrowth of fibrotic tissue) (11). The severity of synovial hypertrophy and cartilage/bone destruction was scored from 0 (intact synovial, cartilage/bone tissue) to 3 (intense synovitis with total destruction of cartilage and/or bone).

immunoglobulins = experiment: Serum total immunoglobulins (single radial immunodiffusion); assay type: in vivo, B10.QxDBA/1 female mice; settings: serum at end of experiment, mean ± SEM
Procedure: Serum levels of immunoglobulins were measured by the single radial immunodiffusion technique (12). Antiserum was purchased from Dako (Dako A/S, Denmark) and mouse immunoglobulin standards were obtained from Sigma (Sigma Chemical Co., St. Louis, Mo.).

[5] = tested on: draining lymph node cells; experiment: Draining lymph node response after CII immunization; assay type: in vivo, mice
IL-6 [6] = assay type: cell-based; settings: spleen cells of mice given 12.5 mg/kg 4 days a week for 4 weeks; mean ± SEM, 4 mice
TNF-α = assay type: cell-based; settings: spleen cells of mice given 12.5 mg/kg 4 days a week for 4 weeks; mean ± SEM, 4 mice
spleen mononuclear cells = assay type: cell-based; settings: spleen cells of mice given 12.5 mg/kg 4 days a week for 4 weeks
IL-6 [7] = experiment: IL-6 release by IC-21 macrophage cell line; assay type: cell-based, murine
Procedure: These cells display many typical features of the macrophage phenotype and are therefore a suitable model for studying cytoline and chemokine release during inflammation (16). The cells were maintained in continous culture using RPMI-1640 supplemented with 10% FCS, L-glutamine, and gentamycin. When the cells had grown to about 70% confluency, they were seeded into a 24-well-plate (Nunc) at a concentration of 1×10^5 per well and incubated at 37° C. in 5% CO2 for 24 h. […] After 24 h of incubation, the cells were washed once with PBS, and reincubated with medium containing different concentrations (1, 10, 100, 1000 ng/ml) of LPS (Difco) and IFN-γ (10, 50, 100 u/nml). The interferon-γ was purified from the supernatants from Chinese hanater ovary (CHO) cells transfected with the murine IFN-γ gene (hybridoma kindly provided by Dr. Morris, Department of Biological Sciences, University of Warwick, Coventry, UK). After 2 and 24 h of incubation the supernatants were collected and stored at −20° C. until analysis.

[8] = etoposide 1 μM, mean ± SEM, four mice
[9] = Etoposide pretreated, n 16, day 61
[10] = Etoposide treated (from day 40), n 17, day 61, mean ± SEM

With `COc1cc([C@@H]2c3cc4c(cc3[C@@H](O[C@@H]3O[C@@H]5CO[C@@H](C)O[C@H]5[C@H](O)[C@H]3O)[C@H]3COC(=O)[C@H]23)OCO4)cc(OC)c1O` [Etoposide] the “Mice with cartilage and bone destructions” value ([1]; 6 days after S. aureus inoculation, controls 8 out of 10) was 4 out of 8, the “Mice with synovial hypertrophy” value ([1]; 6 days after S. aureus inoculation, controls 9 out of 10) was 4 out of 8 and the “Numbers of Mac-3 positive cells in joints” value ([1]; S. aureus infected, etoposide vs PBS, data not shown) was “did not show any significant differences”. The “IL-6, ConA stimulated” value (IL-6 [2]; [8]) was 825 ± 455 pg/mL, the “IL-6, TSST-1 stimulated” value (IL-6 [2]; [8]) was 45 ± 16b pg/ml and the “IL-6, ConA stimulated” value (IL-6 [2]; etoposide 10 μM) was <10^b pg/ml. The “IL-6, TSST-1 stimulated” value (IL-6 [2]; etoposide 10 μM) was <10^b pg/ml, the “IL-6, ConA stimulated” value (IL-6 [2]; etoposide 100 μM) was <10^b pg/ml and the “IL-6, TSST-1 stimulated” value (IL-6 [2]; etoposide 100 μM) was <10^b pg/ml. The “TNF, ConA stimulated” value (TNF) was 138 ± 17 pg/mL, the “TNF, TSST-1 stimulated” value (TNF) was 77 ± 22 pg/mL and the Numbers of lymphocytes ([3]; day prior to bacterial inoculation) was 5.6±0.4 ×10^6/ml. The Numbers of granulocytes ([3]; day −1) was 1.3±0.2 ×10^6/ml, the “Levels of circulating monocytes” value ([3]; etoposide from three days prior to S. aureus inoculation, FIG. 4) was “significantly decreased” and the Numbers of lymphocytes ([3]; seven days after infection) was 0.8±0.2 ×10^6/ml. The Numbers of granulocytes ([3]; seven days after the inoculation) was 1.6±0.4 ×10^6/ml, the Cartilage/bone destruction score [4, 9] was 0 and the Synovial hypertrophy score [4, 9] was 0. For the same compound, the Cartilage/bone destruction score [4, 10] was 4.5 ± 2.4, the Synovial hypertrophy score [4, 10] was 2.4 ± 1.1 and the Total immunoglobulin levels (immunoglobulins; Etoposide-pretreated) was 9.2±0.5 mg/ml and 9.2 ± 0.5a mg/ml. The Total immunoglobulin levels (immunoglobulins; Etoposide-treated (from day 40)) was 8.5±0.7 mg/ml and 8.5 ± 0.8^a mg/ml, the “Numbers of B cells, T cells, macrophages and germinal centers in inguinal lymph nodes” value ([5]; 10 days after CII immunization, immunohistochemical stainings) was “no significant effects on numbers” and the “Antibodies to CII in lymph node cell cultures” value ([5]; lymph node cells challenged in vitro with CII, vs PBS controls) was “not produced at all”. The “T cell functions (proliferation, IFN-γ secretion) of lymph node cells” value ([5]; lymph node cells challenged in vitro with CII, data not shown) was “no difference in T cell functions”, the “IL-6, Con A” value (IL-6 [6]) was 74 ± 15^a) pg/ml and the “IL-6, TSST-1” value (IL-6 [6]) was 10 ± 3 pg/mL. The “TNF-α, Con A” value (TNF-α) was 6 ± 0.5^a) pg/ml, the “TNF-α, TSST-1” value (TNF-α) was 6 ± 0.4^a) pg/ml and the “Counts per minute (CPM), TSST-1” value (spleen mononuclear cells; first value of merged cell) was 1117 ± 26 CPM. The “Counts per minute (CPM), Con A” value (spleen mononuclear cells; mean ± SEM, 4 mice) was 2183 ± 214^a) CPM, the “Counts per minute (CPM), 0 (unstimulated)” value (spleen mononuclear cells; second value of merged cell) was 156 ± 9 CPM and the “Levels of IL-6 in supernatants” value (IL-6 [7]; IC-21, stimulated with IFN-γ, levels very low, FIG. 6B) was “seemed to be upregulated”. For the same compound, the “Levels of IL-6 in supernatants” value (IL-6 [7]; IC-21, stimulation by LPS, FIG. 6A) was “downregulated”.
